Measurements taken from patent publication US5851782A, “Inhibitors of ceramidase” (Duke University, priority 1996, dated 1998).

Assays:
[1] = tested on: ceramide-activated protein phosphatase (CAPP); test: CAPP serine/threonine phosphatase activity in vitro; format: biochemical; settings: myelin basic protein phosphorylated by protein kinase A as substrate
acid ceramidase [2] = molecular target: T1, acid ceramidase (Homo sapiens, UniProt Q13510); test: Acid ceramidase activity in vitro at pH 4.5; format: biochemical; design: Ceramidase activity was determined from total homogenates of HL-60 cells; endogenous in cells; host or cells: HL-60 cells; settings: pH 4.5, 50 μM C16-ceramide substrate
T1 sequence (Q13510 22-395): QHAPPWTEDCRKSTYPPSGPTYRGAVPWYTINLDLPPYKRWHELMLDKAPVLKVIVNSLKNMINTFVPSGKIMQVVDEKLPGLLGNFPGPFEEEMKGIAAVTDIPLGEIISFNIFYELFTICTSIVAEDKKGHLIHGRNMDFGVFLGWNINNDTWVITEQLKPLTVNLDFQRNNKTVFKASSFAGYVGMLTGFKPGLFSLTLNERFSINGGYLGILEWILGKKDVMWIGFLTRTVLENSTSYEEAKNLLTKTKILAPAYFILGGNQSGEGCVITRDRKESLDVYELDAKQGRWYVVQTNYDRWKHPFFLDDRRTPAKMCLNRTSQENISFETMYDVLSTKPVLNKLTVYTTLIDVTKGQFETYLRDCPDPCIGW
Experimental: Measurement of ceramidase activity in HL-60 cells. Ceramidase activity in HL-60 cells was measured by a modification of the method of Gatt and Yavin (Methods Enzymol. 14:139 (1969)). Cells were disrupted by sonication in 0.25M sucrose, 1 mM EDTA, and centrifuged at 10,000×g for 10 min after which the supernatant was centrifuged at 100,000×g for 60 min. Ten μl of 1 mM ceramide substrate ([^3 H]C16 -ceramide) was mixed with 100 μl of Triton X-100 (0.1%) in chloroform/methanol, 2:1, and 100 μl of 0.2% sodium cholate in chloroform/methanol, 2:1, after which the solvent was evaporated under N2 at 70° C. To this mixture, 30 μl of water was added and the tubes were heated for 5 s in an 80° C. water bath and then put on ice. Fifty μl of the appropriate buffer depending on desired pH was added followed by 20 μl of 50 mM MgCl2 and 100 μl of cell extract. In experiments using inhibitors, the desired inhibitor was added in ethanol either with the substrate or directly to the final solution. The reaction mixture was incubated for 1 h at 37° C. The ^3 H-fatty acid products of ceramidase were separated by the addition of 2 ml of Dole's solution (isopropyl alcohol, heptane, NaOH), 1.2 ml of heptane, and 1 ml of water. After vortexing and centrifugation, the upper phase was discarded and the lower phase was washed twice with heptane and the upper phase discarded each time. […]

alkaline ceramidase = test: Alkaline ceramidase activity in vitro at pH 9.0; format: biochemical, human; settings: final concentrations up to 50 μM
Experimental: Measurement of ceramidase activity in HL-60 cells. Ceramidase activity in HL-60 cells was measured by a modification of the method of Gatt and Yavin (Methods Enzymol. 14:139 (1969)). Cells were disrupted by sonication in 0.25M sucrose, 1 mM EDTA, and centrifuged at 10,000×g for 10 min after which the supernatant was centrifuged at 100,000×g for 60 min. Ten μl of 1 mM ceramide substrate ([^3 H]C16 -ceramide) was mixed with 100 μl of Triton X-100 (0.1%) in chloroform/methanol, 2:1, and 100 μl of 0.2% sodium cholate in chloroform/methanol, 2:1, after which the solvent was evaporated under N2 at 70° C. To this mixture, 30 μl of water was added and the tubes were heated for 5 s in an 80° C. water bath and then put on ice. Fifty μl of the appropriate buffer depending on desired pH was added followed by 20 μl of 50 mM MgCl2 and 100 μl of cell extract. In experiments using inhibitors, the desired inhibitor was added in ethanol either with the substrate or directly to the final solution. The reaction mixture was incubated for 1 h at 37° C. The ^3 H-fatty acid products of ceramidase were separated by the addition of 2 ml of Dole's solution (isopropyl alcohol, heptane, NaOH), 1.2 ml of heptane, and 1 ml of water. After vortexing and centrifugation, the upper phase was discarded and the lower phase was washed twice with heptane and the upper phase discarded each time. Finally, 1 ml of 1N H2 SO4, and 2 ml of heptane were added, and after vortexing and centrifugation the upper phase was transferred for counting by liquid scintillation.
In order to evaluate the interactions of D- and L-e-MAPP with ceramidase, in vitro studies we conducted using cytosolic and membrane fractions from HL-60 cells. Initially, ceramidase activity was examined for pH dependence using tritium-labeled C16 -ceramide as substrate. […] The alkaline ceramidase activity was very similar to that described in fibroblasts and cerebellar tissue (Sugita et al, Biochim. Biophys. Acta 398:125 (1975), Wertz and Downing, FEBS Lett. 268:110 (1990)). In initial studies, the ability of this ceramidase to utilize D-e- and L-e-MAPP as substrates was investigated. […] These studies corroborate the cellular metabolism studies showing that L-e-MAPP is a substrate for ceramidase in vitro and in cells.
Next, the ability of D- and L-e-MAPP to interfere with hydrolysis of C16 -ceramide by ceramidase at pH 4.5 and 9.0 was evaluated. Inhibition of ceramidase activity by D-e-MAPP was compared to that by N-oleoylethanolamine, a putative inhibitor of acid ceramidase (Sugita et al, Biochim. Biophys. Acta 398:125 (1975)). […] The effects of N-oleoylethanolamine are consistent with the previously reported Ki of 700 μM (Sugita et al, Biochim. Biophys. Acta 398:125 (1975)). […] In contrast, D-e-MAPP was a relatively poor inhibitor of acid ceramidase with less than 10% inhibition of acid ceramidase at 50 μM (FIG. 6C).

acid ceramidase [3] = molecular target: T1, acid ceramidase; settings: Sugita et al, Biochim. Biophys. Acta 398:125 (1975); read-out: previously reported Ki; cited from earlier work
[4] = molecular target: T2, Glucosylceramide synthase (Homo sapiens, UniProt Q16739); test: Glucocerebroside (glucosylceramide) synthase assay in vitro; format: biochemical; settings: 20 μM
T2 sequence (Q16739 1-394): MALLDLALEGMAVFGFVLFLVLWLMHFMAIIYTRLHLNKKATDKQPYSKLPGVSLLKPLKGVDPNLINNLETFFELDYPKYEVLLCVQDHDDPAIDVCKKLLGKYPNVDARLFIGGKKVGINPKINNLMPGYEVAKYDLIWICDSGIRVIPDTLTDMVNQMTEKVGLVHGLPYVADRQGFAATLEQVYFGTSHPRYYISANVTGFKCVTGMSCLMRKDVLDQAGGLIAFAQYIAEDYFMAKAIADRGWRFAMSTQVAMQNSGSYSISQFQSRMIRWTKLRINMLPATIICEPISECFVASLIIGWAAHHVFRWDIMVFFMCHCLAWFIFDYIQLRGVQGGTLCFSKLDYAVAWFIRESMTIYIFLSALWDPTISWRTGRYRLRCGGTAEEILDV
Experimental: Glucocerebrosidase and glucocerebroside synthase assays. In vitro assays for gluccerebrosidase and for cerebroside synthase were performed as described (Abe et al, J. Biochem. (Tokyo) 11:191 (1992)).
In addition to ceramidase, inhibition of cerebroside synthase and sphingomyelin synthase or stimulation of sphingomyelinase or cerebrosidase could result in elevations in endogenous ceramide levels. Therefore, the effects of D- and L-e-MAPP were examined on these enzyme activities in vitro and in cells.

[5] = tested on: HL-60 human myelocytic leukemia cells; test: HL-60 cell proliferation (cell counting); format: cell-based; settings: HL-60, 3 μM D-MAPP plus fumonisin B1, 48 h
Experimental: Proliferation and cell cycle studies. HL-60 human myelocytic leukemia cells (obtained from the American Type Culture Collection) were grown in RPMI 1640 medium containing 10 fetal calf serum at 37° C. in 5% CO2 incubator. For proliferation and cell cycle studies, cells were resuspended at a density of 2×10^5 cells/ml in serum-free media containing insulin (5 mg/liter) and transferrin (5 mg/liter) and sodium selenite (5 μg/liter) for 2-4 h. Cells were then treated with the indicated compounds. Ethanol concentration was always maintained at less than 0.1%. Cell proliferation was determined by counting cells using a hemacytometer, cell viability was evaluated by trypan blue dye exclusion, and cell cycle analysis was determined by propidium iodide flow cytometry as described (Chao et al, J. Biol. Chem. 267:23459 (1992)).
In structure-function analysis of ceramide-mediated growth suppression using amides of phenylaminoalcohols, D- and L-erythro-MAPP were employed. In these studies, HL-60 cells were treated with 5 μM of either D-e-MAPP or L-e-MAPP, and growth was determined at the indicated time points (FIG. 2A).
Studies were conducted examining the uptake and metabolism of D- and L-MAPP. In the first set of studies, the effect of duration of exposure of HL-60 cells to D-e-MAPP on the bioactivity of the molecule was determined. D-e-MAPP added to cells could be washed off by repeated sedimentation and washing of cells. Thus, after five cycles of washing, less than 10% of D-MAPP remained associated with the cell pellet-compared to unwashed cells (FIG. 5A).

## CCCCCCCCCCCCC/C=C/[C@@H](O)[C@H](CO)NC(=O)CCCCC [C6 -ceramide, reference compound]
[1]
  activation of CAPP in vitro: concentration-dependent stimulation of activity

## CCCCCCCC/C=C\CCCCCCCC(=O)NCCO [N-oleoylethanolamine, reference compound]
Acid ceramidase [2]
  IC50: ~500 µM
Alkaline ceramidase
  inhibition of alkaline ceramidase in vitro: less than 10%
Acid ceramidase [3]
  Ki: 700 µM

## CCCCCCCCCCCCCC(=O)NC(CN1CCOCC1)C(O)c1ccccc1 (stereo not shown) [PMMP, reference compound]
[4]; Control 1.009 ± 0.0424
  Glucosylceramide synthase activity: 0.208 ± 0.008 nmol/h/mg protein
[4]; Table I
  inhibition of cerebroside synthase activity: significant inhibition

## CCCCC(C)C(OC(=O)CC(CC(=O)O)C(=O)O)C(CC(C)CC(O)CCCCC(O)CC(O)C(C)N)OC(=O)CC(CC(=O)O)C(=O)O (stereo not shown) [fumonisin B1, reference compound]
[5]
  effect on growth suppression by D-e-MAPP: did not inhibit the effects of D-e-MAPP on growth
